Data on 13 compounds can be found in ChEMBL document CHEMBL1201862, “PubChem BioAssay data set” (2004).

In test [1] the target is Heat shock protein HSP 90-alpha (Homo sapiens, UniProt P07900). The test is classed as functional, organism-based.
Test [2] addresses Phospholipase A2 (Homo sapiens, UniProt P04054). The test is classed as functional.
The target in test [3] is Genome polyprotein (dengue virus type 2, UniProt P29990). Put plainly: flavivirus cap methylation enzyme inhibition – biochemical, confirmation dose response, primary screen (AID 588689). In kind it is functional.
Sequence of Genome polyprotein (P29990 2492-3391 limits assumed): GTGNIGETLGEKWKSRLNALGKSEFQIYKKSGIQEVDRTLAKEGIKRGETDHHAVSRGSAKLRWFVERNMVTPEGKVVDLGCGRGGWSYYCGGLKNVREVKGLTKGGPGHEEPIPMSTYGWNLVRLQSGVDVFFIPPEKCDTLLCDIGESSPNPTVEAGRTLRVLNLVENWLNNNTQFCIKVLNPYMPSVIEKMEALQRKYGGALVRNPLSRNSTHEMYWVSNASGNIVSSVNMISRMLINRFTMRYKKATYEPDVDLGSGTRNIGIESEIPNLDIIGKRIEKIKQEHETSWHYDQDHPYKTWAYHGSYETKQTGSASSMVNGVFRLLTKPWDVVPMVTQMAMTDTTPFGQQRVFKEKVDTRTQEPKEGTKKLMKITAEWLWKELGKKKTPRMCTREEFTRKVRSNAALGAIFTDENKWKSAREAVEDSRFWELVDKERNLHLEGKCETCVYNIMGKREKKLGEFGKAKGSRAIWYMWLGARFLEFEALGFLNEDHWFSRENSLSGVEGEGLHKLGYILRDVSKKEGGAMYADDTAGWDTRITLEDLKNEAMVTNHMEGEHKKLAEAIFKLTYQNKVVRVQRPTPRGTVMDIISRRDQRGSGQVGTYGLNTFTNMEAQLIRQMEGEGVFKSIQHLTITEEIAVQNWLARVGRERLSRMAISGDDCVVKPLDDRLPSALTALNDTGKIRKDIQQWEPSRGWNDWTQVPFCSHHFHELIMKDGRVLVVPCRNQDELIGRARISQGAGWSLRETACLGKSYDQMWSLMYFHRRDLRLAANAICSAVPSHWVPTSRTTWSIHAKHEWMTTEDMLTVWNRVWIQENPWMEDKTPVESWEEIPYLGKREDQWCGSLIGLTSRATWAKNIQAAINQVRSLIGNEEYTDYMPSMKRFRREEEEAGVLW
The target in test [4] is Peroxisome proliferator-activated receptor gamma/Nuclear receptor coactivator 1 (Homo sapiens, UniProt P37231). Kind of test: TR-FRET dose response biochemical High Throughput Screening assay for agonists of the steroid receptor coactivator 1 (SRC-1) recruitment by the peroxisome proliferator-activated receptor gamma (PPAR gamma): non-selective agonists. [Related pubchem assays (depositor defined):AID1300, AID1808, AID504735, AID631]. In kind it is protein assay.
Sequence of Peroxisome proliferator-activated receptor gamma/Nuclear receptor coactivator 1 (P37231 whole entry): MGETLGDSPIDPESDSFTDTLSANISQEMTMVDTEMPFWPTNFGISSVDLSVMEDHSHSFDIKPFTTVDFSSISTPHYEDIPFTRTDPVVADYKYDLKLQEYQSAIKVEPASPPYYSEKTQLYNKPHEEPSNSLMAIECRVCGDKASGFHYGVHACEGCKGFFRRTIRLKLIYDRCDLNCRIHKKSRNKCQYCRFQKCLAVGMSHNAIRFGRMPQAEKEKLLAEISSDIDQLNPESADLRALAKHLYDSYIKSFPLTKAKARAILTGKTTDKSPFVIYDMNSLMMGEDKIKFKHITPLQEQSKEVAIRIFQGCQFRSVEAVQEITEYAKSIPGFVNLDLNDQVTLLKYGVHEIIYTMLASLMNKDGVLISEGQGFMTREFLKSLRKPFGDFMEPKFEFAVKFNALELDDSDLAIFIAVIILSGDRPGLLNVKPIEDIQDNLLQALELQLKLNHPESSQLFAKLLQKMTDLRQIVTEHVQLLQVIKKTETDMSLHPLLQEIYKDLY
Sequence of Peroxisome proliferator-activated receptor gamma/Nuclear receptor coactivator 1 (Q15788 whole entry, further chain): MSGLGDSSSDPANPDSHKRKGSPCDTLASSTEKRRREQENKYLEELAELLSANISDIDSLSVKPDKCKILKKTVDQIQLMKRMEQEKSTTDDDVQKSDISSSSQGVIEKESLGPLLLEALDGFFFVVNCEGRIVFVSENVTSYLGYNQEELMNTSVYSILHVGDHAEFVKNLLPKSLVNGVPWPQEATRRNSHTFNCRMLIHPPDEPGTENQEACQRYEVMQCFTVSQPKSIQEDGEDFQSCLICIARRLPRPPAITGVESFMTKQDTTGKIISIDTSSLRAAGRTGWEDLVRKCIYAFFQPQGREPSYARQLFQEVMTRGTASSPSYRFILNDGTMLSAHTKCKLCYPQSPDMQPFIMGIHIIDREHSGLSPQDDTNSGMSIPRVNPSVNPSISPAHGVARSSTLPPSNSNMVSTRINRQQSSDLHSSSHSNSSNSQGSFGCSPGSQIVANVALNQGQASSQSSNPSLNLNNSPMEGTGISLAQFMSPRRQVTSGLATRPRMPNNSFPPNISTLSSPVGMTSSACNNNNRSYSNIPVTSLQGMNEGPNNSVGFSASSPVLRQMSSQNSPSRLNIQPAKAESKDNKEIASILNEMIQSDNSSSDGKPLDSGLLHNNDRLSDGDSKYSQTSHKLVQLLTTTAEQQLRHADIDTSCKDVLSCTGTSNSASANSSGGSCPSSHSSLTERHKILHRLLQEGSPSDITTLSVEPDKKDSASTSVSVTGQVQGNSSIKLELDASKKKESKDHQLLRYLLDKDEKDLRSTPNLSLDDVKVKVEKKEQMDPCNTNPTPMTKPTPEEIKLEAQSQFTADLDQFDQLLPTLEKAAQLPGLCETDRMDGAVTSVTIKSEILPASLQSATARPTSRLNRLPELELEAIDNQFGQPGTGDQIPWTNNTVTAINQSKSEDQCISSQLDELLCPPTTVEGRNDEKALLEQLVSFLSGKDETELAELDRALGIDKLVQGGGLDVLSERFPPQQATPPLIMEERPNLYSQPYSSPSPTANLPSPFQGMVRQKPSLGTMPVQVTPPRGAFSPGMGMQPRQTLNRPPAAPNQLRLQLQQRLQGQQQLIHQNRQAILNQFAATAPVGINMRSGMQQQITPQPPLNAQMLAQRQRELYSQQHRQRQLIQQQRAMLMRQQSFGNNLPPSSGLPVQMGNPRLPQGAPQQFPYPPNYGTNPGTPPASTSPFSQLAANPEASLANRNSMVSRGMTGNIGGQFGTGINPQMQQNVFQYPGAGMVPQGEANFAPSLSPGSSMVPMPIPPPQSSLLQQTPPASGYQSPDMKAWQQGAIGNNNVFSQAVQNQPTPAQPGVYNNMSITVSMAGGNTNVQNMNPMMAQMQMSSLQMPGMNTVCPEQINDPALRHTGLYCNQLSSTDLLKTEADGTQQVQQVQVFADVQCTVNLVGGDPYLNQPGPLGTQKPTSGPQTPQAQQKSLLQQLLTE

Test [5] concerns the target Peroxisome proliferator-activated receptor gamma/Nuclear receptor coactivator 3 (Homo sapiens, UniProt P37231). Put plainly: TR-FRET dose response biochemical High Throughput Screening assay for agonists of the steroid receptor coactivator 3 (SRC-3) recruitment by the peroxisome proliferator-activated receptor gamma (PPAR gamma): non-selective agonists. [Related pubchem assays: 1301 (Confirmation screen.), 1048 (Primary screen.)]. The test is classed as functional. (In general: In TR-FRET formats the signal depends on donor and acceptor labels being close together.)

Test [6] addresses Peroxisome proliferator-activated receptor gamma/Nuclear receptor coactivator 2 (Homo sapiens, UniProt P37231). Put plainly: TR-FRET dose response biochemical High Throughput Screening assay for agonists of the steroid receptor coactivator 2 (SRC-2) recruitment by the peroxisome proliferator-activated receptor gamma (PPAR gamma): non-selective agonists. [Related pubchem assays: 1297, 1032 ]. The test is classed as functional.

A short description of test [7]: HEK-293T cell viability reduction – luminescence, B-cell screen hits, cytotoxicity control for BCR NF-kB inhibitor project, dose response (AID 489021).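 Note: HEK-293T cells carrying an NF-kB luciferase reporter; cells exposed to compound for about 14 hours before viability readout.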 The test is classed as functional, cell-based.
The target of test [8] is DNA dC->dU-editing enzyme APOBEC-3A (Homo sapiens, UniProt P31941). Put plainly: Dose Response confirmation of small molecule APOBEC3A DNA Deaminase Inhibitors via a fluorescence-based single-stranded DNA deaminase assay. [Related pubchem assays (depositor defined):AID493011, AID493024]. In kind it is functional.
Sequence of DNA dC->dU-editing enzyme APOBEC-3A (P31941 whole entry): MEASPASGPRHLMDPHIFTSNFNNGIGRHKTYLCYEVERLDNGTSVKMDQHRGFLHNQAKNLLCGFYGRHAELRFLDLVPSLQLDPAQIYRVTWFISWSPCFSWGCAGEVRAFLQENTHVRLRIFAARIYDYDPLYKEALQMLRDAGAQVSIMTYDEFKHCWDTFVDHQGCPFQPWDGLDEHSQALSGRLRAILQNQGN
Test [9] concerns the target DNA dC->dU-editing enzyme APOBEC-3G (Homo sapiens, UniProt Q9HC16). The test is classed as functional.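 Note: Dose-response counterscreen measuring inhibition of APOBEC3G DNA deaminase activity, run while confirming APOBEC3A inhibitors.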
In test [10] the target is T1, Replicative DNA helicase DnaB (Mycobacterium tuberculosis, UniProt P9WMR3).
T1 sequence (P9WMR3 whole entry): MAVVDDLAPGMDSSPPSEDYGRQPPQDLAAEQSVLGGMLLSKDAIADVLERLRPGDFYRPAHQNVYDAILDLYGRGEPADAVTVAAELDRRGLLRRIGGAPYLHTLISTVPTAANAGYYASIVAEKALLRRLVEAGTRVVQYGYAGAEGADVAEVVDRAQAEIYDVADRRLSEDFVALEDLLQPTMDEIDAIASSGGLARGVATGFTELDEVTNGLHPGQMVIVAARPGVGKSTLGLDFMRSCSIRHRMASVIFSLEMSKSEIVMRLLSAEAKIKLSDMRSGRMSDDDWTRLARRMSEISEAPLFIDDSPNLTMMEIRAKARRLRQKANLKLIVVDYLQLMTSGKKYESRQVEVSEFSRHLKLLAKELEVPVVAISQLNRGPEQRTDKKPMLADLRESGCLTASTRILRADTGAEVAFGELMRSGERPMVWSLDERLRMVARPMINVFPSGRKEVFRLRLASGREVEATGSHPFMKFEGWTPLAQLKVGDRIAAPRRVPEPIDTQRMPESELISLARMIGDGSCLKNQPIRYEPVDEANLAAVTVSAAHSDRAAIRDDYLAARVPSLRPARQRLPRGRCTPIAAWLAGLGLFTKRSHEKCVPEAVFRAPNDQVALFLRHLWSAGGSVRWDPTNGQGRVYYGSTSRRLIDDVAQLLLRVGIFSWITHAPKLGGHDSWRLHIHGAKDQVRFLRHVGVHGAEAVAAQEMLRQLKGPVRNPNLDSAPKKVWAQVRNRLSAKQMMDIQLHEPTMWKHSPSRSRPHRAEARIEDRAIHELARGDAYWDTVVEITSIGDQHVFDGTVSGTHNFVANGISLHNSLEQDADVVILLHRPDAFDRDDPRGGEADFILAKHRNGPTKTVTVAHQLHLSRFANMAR
Kind of test: DnaB intein splicing inhibitors, dose response, biochemical, cell-free fluorescence (AID 449749). The test is classed as functional.

Test [11] has as its target T2, Protein RecA (Mycobacterium tuberculosis, UniProt P9WHJ3).
T2 sequence (P9WHJ3 whole entry): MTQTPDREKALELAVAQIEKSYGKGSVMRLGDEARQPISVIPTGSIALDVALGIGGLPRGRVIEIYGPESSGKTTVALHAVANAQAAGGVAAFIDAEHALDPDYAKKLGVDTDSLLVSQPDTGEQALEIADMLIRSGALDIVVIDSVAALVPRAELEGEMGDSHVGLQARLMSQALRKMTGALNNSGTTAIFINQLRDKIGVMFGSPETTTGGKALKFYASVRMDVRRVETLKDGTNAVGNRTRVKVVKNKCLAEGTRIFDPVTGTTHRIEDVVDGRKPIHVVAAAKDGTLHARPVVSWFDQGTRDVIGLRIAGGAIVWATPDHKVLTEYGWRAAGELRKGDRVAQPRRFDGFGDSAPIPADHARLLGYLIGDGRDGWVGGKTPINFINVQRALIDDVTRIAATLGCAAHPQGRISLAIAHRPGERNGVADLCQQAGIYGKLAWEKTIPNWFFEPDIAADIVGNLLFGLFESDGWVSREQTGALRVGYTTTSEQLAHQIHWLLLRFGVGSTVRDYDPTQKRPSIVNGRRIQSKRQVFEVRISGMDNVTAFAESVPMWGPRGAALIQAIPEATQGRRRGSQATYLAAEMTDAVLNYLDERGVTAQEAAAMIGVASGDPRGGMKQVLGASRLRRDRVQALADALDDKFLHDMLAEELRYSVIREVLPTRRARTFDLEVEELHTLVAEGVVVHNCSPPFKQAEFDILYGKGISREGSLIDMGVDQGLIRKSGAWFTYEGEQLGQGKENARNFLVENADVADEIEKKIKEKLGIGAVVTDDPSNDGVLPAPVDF
Put plainly: Fluorescence Cell-Free Homogeneous Dose Retest to Identify Inhibitors of RecA-Intein Splicing Activity. [Related pubchem assays (depositor defined):AID2097, AID2223, AID489010, AID492950]. The test is classed as functional.

The target of test [12] is T3, RNA-binding protein pos-1 (Caenorhabditis elegans, UniProt G5EF15).
T3 sequence (G5EF15 whole entry): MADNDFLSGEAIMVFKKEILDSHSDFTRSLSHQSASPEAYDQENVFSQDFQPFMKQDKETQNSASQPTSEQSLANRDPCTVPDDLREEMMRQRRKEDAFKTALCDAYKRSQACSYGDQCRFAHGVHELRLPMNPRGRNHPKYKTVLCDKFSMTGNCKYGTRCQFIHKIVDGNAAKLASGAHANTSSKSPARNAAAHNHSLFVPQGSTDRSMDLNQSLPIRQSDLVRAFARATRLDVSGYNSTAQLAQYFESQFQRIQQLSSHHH
Kind of test: disruptors of C. elegans POS-1 RNA interaction – biochemical, fluorescence polarization, dose response (AID 1964).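 Note: purified POS-1 fused to maltose binding protein made in E. coli; potency of compounds blocking POS-1 binding to fluorescent RNA.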 For orientation: Polarisation of emitted light reports the rotation of a fluorescent probe.

For test [13], the target named is T4, Zinc finger protein mex-5 (Caenorhabditis elegans, UniProt Q9XUB2).
T4 sequence (Q9XUB2 whole entry): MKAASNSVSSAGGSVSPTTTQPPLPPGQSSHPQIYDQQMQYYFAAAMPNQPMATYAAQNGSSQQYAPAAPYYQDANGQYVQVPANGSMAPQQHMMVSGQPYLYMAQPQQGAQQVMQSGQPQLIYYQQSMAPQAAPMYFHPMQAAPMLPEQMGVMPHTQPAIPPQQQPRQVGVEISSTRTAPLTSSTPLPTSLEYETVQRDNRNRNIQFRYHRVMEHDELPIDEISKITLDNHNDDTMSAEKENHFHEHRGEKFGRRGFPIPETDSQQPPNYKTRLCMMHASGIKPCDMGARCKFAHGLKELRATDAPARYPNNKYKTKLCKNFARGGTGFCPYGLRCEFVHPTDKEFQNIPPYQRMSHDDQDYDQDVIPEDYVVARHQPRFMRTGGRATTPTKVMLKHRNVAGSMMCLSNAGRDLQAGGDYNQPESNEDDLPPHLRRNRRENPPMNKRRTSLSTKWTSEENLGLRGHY
Kind of test: potency of MEX-5 RNA-binding blockers – biochemical, C. elegans, fluorescence polarization, dose response (AID 1960).

The target of test [14] is Eukaryotic translation initiation factor 4E (Mus musculus, UniProt P63073). Put plainly: blockers of eIF4G binding by eIF4E – biochemical, TR-FRET, dose response (AID 855).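 Note: potency for disrupting eIF4E binding to eIF4GI seen as loss of FRET.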 In kind it is functional.
Sequence of Eukaryotic translation initiation factor 4E (P63073 whole entry): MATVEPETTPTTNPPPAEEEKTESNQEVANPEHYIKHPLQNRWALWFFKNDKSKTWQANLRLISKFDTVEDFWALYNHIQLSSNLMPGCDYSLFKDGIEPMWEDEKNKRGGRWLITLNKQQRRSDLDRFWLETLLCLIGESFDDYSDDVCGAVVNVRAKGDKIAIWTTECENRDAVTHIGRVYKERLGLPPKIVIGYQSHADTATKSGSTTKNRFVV
Test [15] in a line: HEK-293T viability loss after treatment – luminescence, T-cell screen hits, cytotoxicity control for TCR NF-kB inhibitor project, dose response (AID 489026).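 Note: cells exposed to compound about 14 hours before the viability readout.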 In kind it is functional, cell-based.
Test [16] concerns the target T5, Rac GTPase-activating protein 1 (Homo sapiens, UniProt Q9H0H5).
T5 sequence (Q9H0H5 whole entry): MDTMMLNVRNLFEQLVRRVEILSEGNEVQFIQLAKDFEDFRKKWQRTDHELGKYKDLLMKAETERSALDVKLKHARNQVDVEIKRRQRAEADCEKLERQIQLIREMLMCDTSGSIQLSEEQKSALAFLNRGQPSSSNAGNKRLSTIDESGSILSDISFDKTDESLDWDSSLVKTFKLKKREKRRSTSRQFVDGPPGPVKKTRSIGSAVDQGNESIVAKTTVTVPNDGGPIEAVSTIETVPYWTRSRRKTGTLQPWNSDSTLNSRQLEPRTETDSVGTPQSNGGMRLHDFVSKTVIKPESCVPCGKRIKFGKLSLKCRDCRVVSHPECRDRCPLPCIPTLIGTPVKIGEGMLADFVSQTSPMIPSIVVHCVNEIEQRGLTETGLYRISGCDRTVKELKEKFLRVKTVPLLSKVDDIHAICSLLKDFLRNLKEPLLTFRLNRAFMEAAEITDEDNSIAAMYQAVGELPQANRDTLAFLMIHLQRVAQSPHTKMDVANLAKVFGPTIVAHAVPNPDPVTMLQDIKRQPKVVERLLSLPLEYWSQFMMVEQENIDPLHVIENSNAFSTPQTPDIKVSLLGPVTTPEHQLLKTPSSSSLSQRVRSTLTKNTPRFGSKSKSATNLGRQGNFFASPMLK
Put plainly: blockers of MgcRacGAP-driven Rac1 GTP hydrolysis – biochemical, ADP Hunter fluorescence, primary and confirmatory, confirmation (AID 624330). The test is classed as functional.

Calls of active or inactive are those of the source.

Sequence of DNA dC->dU-editing enzyme APOBEC-3G (Q9HC16 whole entry): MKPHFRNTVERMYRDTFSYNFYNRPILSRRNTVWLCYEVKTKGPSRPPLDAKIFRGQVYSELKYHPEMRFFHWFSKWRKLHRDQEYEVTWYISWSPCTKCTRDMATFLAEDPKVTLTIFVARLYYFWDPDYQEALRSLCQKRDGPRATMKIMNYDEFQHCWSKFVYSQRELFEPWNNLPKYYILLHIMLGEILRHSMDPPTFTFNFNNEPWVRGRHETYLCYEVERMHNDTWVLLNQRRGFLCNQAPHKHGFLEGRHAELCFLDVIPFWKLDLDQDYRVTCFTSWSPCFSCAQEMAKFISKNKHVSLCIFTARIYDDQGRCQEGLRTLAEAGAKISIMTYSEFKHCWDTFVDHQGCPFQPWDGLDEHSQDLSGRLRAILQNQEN
Sequence of Phospholipase A2 (P04054 whole entry): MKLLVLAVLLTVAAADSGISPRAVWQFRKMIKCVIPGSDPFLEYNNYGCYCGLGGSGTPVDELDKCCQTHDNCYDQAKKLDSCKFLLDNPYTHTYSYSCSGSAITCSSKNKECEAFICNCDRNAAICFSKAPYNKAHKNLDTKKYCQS

A word on the AC50: it is the concentration at which the activity in the assay is half-maximal. For orientation: IC50 means the concentration needed to halve the response being measured. For `CCCOc1ccc2ccccc2c1/C=C1\SC(=O)NC1=O`, in test [1], the AC50 is 6.89 µM (active). Further, in test [2], the IC50 was 15.9 µM (active).

In the case of `COc1cc(/C=C2/C(=O)NC(=O)N(c3ccccc3)C2=O)ccc1O`, in [3], the 50% inhibitory concentration (IC50) is > 100 µM (active).

The EC50 is the concentration needed to bring the measured effect to its halfway point. In the case of `CCn1c(=O)cc(SCC(=O)N2CCOCC2)c2ccccc21`, the EC50 was > 79.4 µM (inactive) in test [4], > 79.4 µM (not active) in test [5] and > 79.4 µM (not active) in test [6]. Also, in test [7], the IC50 is > 80 µM (inactive).

For `O=C(COc1ccccc1/C=C1/NC(=O)NC1=O)Nc1ccccc1`, the IC50 was 3.71 µM (active) in test [8] and 3.26 µM (active) in [9].

Take `CCOc1c(Br)cc(/C=C2\C(=O)N(CCC#N)N=C2C)cc1OC`: the concentration at half-maximal activity (AC50) in test [10] was 3.43 µM (active). In addition, the concentration giving a half-maximal response (EC50) in test [11] is 1.8 µM (active). In [3], the IC50 was > 100 µM (active).

Regarding `CC(=O)OCCCn1c(C)[n+](C)c2cc(Cl)c(Cl)cc21`, the values for the IC50 in test [8] and in test [9] were 2.27 µM (active) and 2.41 µM (active), respectively.

As for `CC1=CC(C)(C)[N+](C)(C)c2ccc(C)cc21`, the results for the half-inhibitory concentration (IC50) in test [8] and in test [9] were 2.06 µM (active) and 3.44 µM (active), respectively.

On to `Cc1ccc(N2C(=O)NC(=O)/C(=C\c3cc(C)n(-c4ccc(C(=O)O)cc4)c3C)C2=O)cc1`, for which the 50% effective concentration (EC50) in [12] was > 300 µM (not active); in test [13], 6.96 µM (active). Besides, the IC50 in [3] is > 100 µM (active).

Consider `CC(=O)OC(COC1C[C@@H]2CC[C@@]1(C)C2(C)C)C[N+]1(C)CCCCC1` (some centres undefined), for which the values for the IC50 in test [8] and in test [9] were 1.91 µM (active) and 3.55 µM (active), respectively.

On to `COc1ccccc1-c1nnc(S)o1`, for which the figures for the EC50 in test [4], in test [5] and in test [6] were 59.1 µM (inactive), > 79.4 µM (not active) and 11.9 µM (not active), respectively.

Take `O=C(O)c1cc(/C=C/C(=O)c2cc(F)ccc2O)c2c(c1)COCO2`: in [3], the IC50 was > 100 µM (active).

For `Oc1cc(-c2ccccc2)nc2ccccc12`, the IC50 in test [14] was > 64 µM (inactive); in test [15], > 80 µM (inactive).

`Sc1nnc(-c2ccco2)n1/N=C/c1ccc(Cl)cc1`: the IC50 in [14] was > 64 µM (inactive); in test [16] it was 58.3 µM (active).
